Reference: the kinase profiling compilation of Christmann-Franck et al. (2016)

Legend:
Experiment in all cases: KINOMEscan competition binding
Conditions in all cases: compound 10.0 µM
TGFBR2 (human) = TGFBR2 (human) (UniProt P37173)
MAPK13 (human) = MAPK13 (human) (UniProt O15264)
IRAK4 (human) = IRAK4 (human) (UniProt Q9NWZ3)
ERN1 (human) = ERN1 (human) (UniProt O75460)
SLK (human) = SLK (human) (UniProt Q9H2G2)
CHEK2 (human) = CHEK2 (human) (UniProt O96017)
TGFBR1 (human) = TGFBR1 (human) (UniProt P36897)
PRKCD (human) = PRKCD (human) (UniProt Q05655)
Chain of PRKCD (human) (Q05655 whole entry, looked up): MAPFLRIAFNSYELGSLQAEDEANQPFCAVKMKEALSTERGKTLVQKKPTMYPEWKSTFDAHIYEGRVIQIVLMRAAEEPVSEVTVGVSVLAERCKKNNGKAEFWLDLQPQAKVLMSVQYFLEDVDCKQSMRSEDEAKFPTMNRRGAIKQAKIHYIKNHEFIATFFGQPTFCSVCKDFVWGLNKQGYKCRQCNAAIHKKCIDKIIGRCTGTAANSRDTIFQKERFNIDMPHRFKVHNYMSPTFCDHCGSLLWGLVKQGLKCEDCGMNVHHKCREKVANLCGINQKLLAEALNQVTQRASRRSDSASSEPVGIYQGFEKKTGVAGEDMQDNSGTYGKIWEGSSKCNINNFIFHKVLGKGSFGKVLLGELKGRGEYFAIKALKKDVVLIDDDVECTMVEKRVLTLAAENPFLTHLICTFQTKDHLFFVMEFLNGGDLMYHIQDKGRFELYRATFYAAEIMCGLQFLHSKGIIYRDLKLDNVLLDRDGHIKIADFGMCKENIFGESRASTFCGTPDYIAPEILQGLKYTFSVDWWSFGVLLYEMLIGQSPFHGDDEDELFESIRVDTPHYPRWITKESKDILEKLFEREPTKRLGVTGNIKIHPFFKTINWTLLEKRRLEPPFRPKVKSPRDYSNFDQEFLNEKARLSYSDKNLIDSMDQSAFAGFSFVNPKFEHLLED

[1] = test system: KIT (human), P10721 [A829P]
MYO3B (human) = MYO3B (human) (UniProt Q8WXR4)
CAMKK2 (human) = CAMKK2 (human) (UniProt Q96RR4)
Chain of CAMKK2 (human) (Q96RR4 whole entry, looked up): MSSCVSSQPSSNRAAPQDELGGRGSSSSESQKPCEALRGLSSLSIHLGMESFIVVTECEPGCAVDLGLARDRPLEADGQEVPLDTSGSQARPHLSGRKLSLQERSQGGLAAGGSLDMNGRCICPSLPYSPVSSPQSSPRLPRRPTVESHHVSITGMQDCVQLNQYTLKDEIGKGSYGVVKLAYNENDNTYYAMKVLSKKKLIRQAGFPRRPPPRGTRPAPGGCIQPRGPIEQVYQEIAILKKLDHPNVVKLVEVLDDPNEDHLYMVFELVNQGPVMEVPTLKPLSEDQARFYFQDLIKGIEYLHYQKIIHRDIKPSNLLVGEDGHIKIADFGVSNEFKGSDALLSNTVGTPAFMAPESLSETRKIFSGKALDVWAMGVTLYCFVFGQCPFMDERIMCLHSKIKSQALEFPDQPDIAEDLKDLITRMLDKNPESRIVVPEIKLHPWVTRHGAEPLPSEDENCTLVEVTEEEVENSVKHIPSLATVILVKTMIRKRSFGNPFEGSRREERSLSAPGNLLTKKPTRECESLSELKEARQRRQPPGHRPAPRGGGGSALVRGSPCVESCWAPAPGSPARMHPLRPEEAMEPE

PTK6 (human) = PTK6 (human) (UniProt Q13882)
CASK (human) = CASK (human) (UniProt O14936)
SBK1 (human) = SBK1 (human) (UniProt Q52WX2)
Chain of SBK1 (human) (Q52WX2 whole entry, looked up): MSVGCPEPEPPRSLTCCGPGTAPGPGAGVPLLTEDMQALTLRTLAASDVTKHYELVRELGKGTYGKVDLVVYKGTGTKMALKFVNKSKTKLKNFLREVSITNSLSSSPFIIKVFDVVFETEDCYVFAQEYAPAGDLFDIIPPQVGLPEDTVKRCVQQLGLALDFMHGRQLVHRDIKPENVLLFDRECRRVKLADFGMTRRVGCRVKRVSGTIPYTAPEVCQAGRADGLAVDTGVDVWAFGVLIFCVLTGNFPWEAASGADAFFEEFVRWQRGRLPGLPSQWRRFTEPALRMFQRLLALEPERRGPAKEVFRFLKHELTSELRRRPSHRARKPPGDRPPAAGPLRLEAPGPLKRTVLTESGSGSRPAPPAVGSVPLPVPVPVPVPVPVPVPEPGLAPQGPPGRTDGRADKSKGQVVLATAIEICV

[2] = test system: LRRK2 (human), Q5S007 [G2019S]
GRK4 (human) = GRK4 (human) (UniProt P32298)
GRK7 (human) = GRK7 (human) (UniProt Q8WTQ7)
TNIK (human) = TNIK (human) (UniProt Q9UKE5)
Chain of TNIK (human) (Q9UKE5 whole entry, looked up): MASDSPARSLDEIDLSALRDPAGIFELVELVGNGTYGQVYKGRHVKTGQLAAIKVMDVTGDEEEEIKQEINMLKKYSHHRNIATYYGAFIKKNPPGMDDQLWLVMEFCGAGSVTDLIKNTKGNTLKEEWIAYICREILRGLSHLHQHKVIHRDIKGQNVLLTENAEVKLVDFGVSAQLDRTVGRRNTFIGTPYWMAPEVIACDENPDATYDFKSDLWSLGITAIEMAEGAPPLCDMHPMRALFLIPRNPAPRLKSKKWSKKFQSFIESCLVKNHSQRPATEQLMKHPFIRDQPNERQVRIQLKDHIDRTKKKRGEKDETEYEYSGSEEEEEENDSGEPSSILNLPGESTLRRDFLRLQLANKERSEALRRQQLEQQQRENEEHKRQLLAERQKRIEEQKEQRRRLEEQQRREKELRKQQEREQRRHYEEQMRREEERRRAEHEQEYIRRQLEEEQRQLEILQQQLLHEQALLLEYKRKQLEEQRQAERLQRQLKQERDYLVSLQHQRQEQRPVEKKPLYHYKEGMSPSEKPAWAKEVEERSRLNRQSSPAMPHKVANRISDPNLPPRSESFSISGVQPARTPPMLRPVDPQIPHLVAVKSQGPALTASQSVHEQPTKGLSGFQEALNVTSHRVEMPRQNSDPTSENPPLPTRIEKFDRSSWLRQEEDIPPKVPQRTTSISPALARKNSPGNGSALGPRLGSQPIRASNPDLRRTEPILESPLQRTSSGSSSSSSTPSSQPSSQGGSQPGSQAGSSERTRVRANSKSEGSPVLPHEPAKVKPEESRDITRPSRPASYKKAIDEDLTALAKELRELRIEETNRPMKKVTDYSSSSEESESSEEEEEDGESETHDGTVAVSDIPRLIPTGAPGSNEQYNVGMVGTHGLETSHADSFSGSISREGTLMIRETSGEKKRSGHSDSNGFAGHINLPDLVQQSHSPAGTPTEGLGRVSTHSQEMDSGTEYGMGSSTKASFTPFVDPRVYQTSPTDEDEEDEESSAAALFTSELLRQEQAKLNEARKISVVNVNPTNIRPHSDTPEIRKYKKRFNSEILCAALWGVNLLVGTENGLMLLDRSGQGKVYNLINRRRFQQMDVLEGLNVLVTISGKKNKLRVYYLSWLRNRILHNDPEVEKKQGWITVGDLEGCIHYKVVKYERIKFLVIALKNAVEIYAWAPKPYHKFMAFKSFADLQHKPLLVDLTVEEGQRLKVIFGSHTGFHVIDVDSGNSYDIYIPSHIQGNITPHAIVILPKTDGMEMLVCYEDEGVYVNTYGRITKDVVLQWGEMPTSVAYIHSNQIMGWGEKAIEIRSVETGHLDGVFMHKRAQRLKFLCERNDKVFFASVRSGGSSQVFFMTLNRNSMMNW

FGFR2 (human) = FGFR2 (human) (UniProt P21802)
DCLK1 (human) = DCLK1 (human) (UniProt O15075)
MAPKAPK5 (human) = MAPKAPK5 (human) (UniProt Q8IW41)
[3] = test system: EGFR (human), P00533 [L858R]
STK38L (human) = STK38L (human) (UniProt Q9Y2H1)
CIT (human) = CIT (human) (UniProt O14578)
CLK3 (human) = CLK3 (human) (UniProt P49761)
STK32A (human) = STK32A (human) (UniProt Q8WU08)
MAP4K5 (human) = MAP4K5 (human) (UniProt Q9Y4K4)
PDPK1 (human) = PDPK1 (human) (UniProt O15530)
PIP4K2B (human) = PIP4K2B (human) (UniProt P78356)
Chain of PIP4K2B (human) (P78356 whole entry, looked up): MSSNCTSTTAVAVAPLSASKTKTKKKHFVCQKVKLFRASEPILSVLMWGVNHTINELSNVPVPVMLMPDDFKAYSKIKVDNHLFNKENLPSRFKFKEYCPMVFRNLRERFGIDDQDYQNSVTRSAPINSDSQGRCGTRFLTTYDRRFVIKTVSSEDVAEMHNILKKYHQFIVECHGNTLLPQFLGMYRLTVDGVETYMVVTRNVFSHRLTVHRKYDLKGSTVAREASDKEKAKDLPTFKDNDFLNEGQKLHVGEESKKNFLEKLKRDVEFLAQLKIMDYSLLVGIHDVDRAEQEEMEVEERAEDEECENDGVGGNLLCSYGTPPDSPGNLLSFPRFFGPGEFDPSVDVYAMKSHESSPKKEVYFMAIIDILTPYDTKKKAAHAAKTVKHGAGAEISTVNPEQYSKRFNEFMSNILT

CLK2 (human) = CLK2 (human) (UniProt P49760)
OXSR1 (human) = OXSR1 (human) (UniProt O95747)
TAOK1 (human) = TAOK1 (human) (UniProt Q7L7X3)
PIP5K1A (human) = PIP5K1A (human) (UniProt Q99755)
CDK11B (human) = CDK11B (human) (UniProt P21127)
Chain of CDK11B (human) (P21127 whole entry, looked up): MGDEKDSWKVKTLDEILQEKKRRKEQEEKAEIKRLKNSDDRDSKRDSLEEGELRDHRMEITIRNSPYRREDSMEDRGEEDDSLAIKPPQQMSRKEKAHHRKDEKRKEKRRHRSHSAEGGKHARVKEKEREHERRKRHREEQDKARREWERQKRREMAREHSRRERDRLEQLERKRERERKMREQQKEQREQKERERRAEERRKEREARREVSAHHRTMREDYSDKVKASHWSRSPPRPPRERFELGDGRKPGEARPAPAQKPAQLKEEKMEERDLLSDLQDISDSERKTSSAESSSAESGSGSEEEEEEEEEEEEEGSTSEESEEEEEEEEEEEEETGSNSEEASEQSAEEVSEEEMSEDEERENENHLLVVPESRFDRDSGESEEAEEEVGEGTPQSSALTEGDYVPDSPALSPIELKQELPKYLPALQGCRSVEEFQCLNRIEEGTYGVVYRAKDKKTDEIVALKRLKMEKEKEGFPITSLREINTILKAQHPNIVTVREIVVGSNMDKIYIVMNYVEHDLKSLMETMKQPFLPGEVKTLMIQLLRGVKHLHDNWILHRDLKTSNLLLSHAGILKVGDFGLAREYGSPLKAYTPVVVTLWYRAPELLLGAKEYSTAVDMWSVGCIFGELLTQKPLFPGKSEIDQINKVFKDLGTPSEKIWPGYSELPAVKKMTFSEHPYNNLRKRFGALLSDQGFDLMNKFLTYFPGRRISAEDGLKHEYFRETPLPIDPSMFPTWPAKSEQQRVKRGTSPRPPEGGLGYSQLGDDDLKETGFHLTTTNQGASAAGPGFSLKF

LATS2 (human) = LATS2 (human) (UniProt Q9NRM7)
HIPK3 (human) = HIPK3 (human) (UniProt Q9H422)
HCK (human) = HCK (human) (UniProt P08631)
CAMK2B (human) = CAMK2B (human) (UniProt Q13554)
CaMK1 (human) = CaMK1 (human) (UniProt Q14012)
DYRK2 (human) = DYRK2 (human) (UniProt Q92630)

Chain of IRAK4 (human) (Q9NWZ3 whole entry, looked up): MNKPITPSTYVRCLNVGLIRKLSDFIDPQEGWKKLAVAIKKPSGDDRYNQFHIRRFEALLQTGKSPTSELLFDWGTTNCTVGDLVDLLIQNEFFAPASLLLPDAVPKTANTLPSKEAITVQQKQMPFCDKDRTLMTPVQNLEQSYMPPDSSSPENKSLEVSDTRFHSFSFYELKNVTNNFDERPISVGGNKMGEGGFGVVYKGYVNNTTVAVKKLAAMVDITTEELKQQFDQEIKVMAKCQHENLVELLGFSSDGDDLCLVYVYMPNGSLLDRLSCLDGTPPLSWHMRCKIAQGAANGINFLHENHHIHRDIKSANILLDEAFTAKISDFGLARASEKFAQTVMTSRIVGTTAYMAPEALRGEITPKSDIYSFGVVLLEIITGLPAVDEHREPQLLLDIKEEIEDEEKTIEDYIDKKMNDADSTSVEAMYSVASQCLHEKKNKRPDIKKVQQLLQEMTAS

| SMILES | kinase still bound, per cent of control (IRAK4 (human)) [%] | kinase still bound, per cent of control (ERN1 (human)) [%] | kinase still bound, per cent of control (PRKCD (human)) [%] | kinase still bound, per cent of control [1] [%] | kinase still bound, per cent of control (MYO3B (human)) [%] | kinase still bound, per cent of control (CAMKK2 (human)) [%] | kinase still bound, per cent of control (CASK (human)) [%] | kinase still bound, per cent of control (SBK1 (human)) [%] | kinase still bound, per cent of control [2] [%] | kinase still bound, per cent of control (GRK4 (human)) [%] | kinase still bound, per cent of control (GRK7 (human)) [%] | kinase still bound, per cent of control (TNIK (human)) [%] | kinase still bound, per cent of control (FGFR2 (human)) [%] | kinase still bound, per cent of control (DCLK1 (human)) [%] | kinase still bound, per cent of control (CIT (human)) [%] | kinase still bound, per cent of control (CLK3 (human)) [%] | kinase still bound, per cent of control (STK32A (human)) [%] | kinase still bound, per cent of control (PIP4K2B (human)) [%] | kinase still bound, per cent of control (CLK2 (human)) [%] | kinase still bound, per cent of control (OXSR1 (human)) [%] | other results |
| --- | --- | --- | --- | --- | --- | --- | --- | --- | --- | --- | --- | --- | --- | --- | --- | --- | --- | --- | --- | --- | --- |
| CCCS(=O)(=O)Nc1ccc(F)c(C(=O)c2c[nH]c3ncc(Cl)cc23)c1F | 86 | 78 | 100 | 67 | 47 | 79 | 51 | 92 | 38 | 100 | 76 | 24 | 59 | 52 | 66 | 80 | 85 | 100 | 10 | 24 | kinase still bound, per cent of control (TGFBR2 (human)): 6.6%; kinase still bound, per cent of control (MAPK13 (human)): 85%; kinase still bound, per cent of control (SLK (human)): 15%; kinase still bound, per cent of control (CHEK2 (human)): 64%; kinase still bound, per cent of control (TGFBR1 (human)): 60%; kinase still bound, per cent of control (PTK6 (human)): 0.5%; kinase still bound, per cent of control (MAPKAPK5 (human)): 100%; kinase still bound, per cent of control [3]: 72%; kinase still bound, per cent of control (STK38L (human)): 71%; kinase still bound, per cent of control (MAP4K5 (human)): 22%; kinase still bound, per cent of control (PDPK1 (human)): 85%; kinase still bound, per cent of control (TAOK1 (human)): 52%; kinase still bound, per cent of control (PIP5K1A (human)): 100%; kinase still bound, per cent of control (CDK11B (human)): 99%; kinase still bound, per cent of control (LATS2 (human)): 86%; kinase still bound, per cent of control (HIPK3 (human)): 46%; kinase still bound, per cent of control (HCK (human)): 19%; kinase still bound, per cent of control (CAMK2B (human)): 63% |
| CCN(CCO)CCCOc1ccc2c(Nc3cc(CC(=O)Nc4cccc(F)c4)[nH]n3)ncnc2c1 | 76 | 67 | 91 | 50 | 100 | 100 | 88 | 100 | 100 | 100 | 54 | 52 | 80 | 51 | 27 | 100 | 100 | 100 | 67 | 100 | kinase still bound, per cent of control (TGFBR2 (human)): 100%; kinase still bound, per cent of control (SLK (human)): 64%; kinase still bound, per cent of control (CHEK2 (human)): 100%; kinase still bound, per cent of control (TGFBR1 (human)): 98%; kinase still bound, per cent of control (PTK6 (human)): 72%; kinase still bound, per cent of control (CaMK1 (human)): 69%; kinase still bound, per cent of control (DYRK2 (human)): 73%; kinase still bound, per cent of control (MAPKAPK5 (human)): 100%; kinase still bound, per cent of control (STK38L (human)): 100%; kinase still bound, per cent of control (MAP4K5 (human)): 0.95%; kinase still bound, per cent of control (PDPK1 (human)): 100%; kinase still bound, per cent of control (TAOK1 (human)): 59%; kinase still bound, per cent of control (PIP5K1A (human)): 73%; kinase still bound, per cent of control (CDK11B (human)): 6.5%; kinase still bound, per cent of control (LATS2 (human)): 52%; kinase still bound, per cent of control (HIPK3 (human)): 29%; kinase still bound, per cent of control (HCK (human)): 31%; kinase still bound, per cent of control (CAMK2B (human)): 84% |
| CC(=O)c1c(C)c2cnc(Nc3ccc(N4CCNCC4)cn3)nc2n(C2CCCC2)c1=O | 39 | 34 | 90 | 32 | 100 | 20 | 60 | 36 | 39 | 26 | 13 | 23 | 95 | 2.9 | 3.2 | 55 | 87 | 18 | 0.35 | 81 | kinase still bound, per cent of control (CaMK1 (human)): 35%; kinase still bound, per cent of control (DYRK2 (human)): 5.5%; kinase still bound, per cent of control (TAOK1 (human)): 11%; kinase still bound, per cent of control (PIP5K1A (human)): 32%; kinase still bound, per cent of control (CDK11B (human)): 93%; kinase still bound, per cent of control (LATS2 (human)): 42%; kinase still bound, per cent of control (HIPK3 (human)): 2.1%; kinase still bound, per cent of control (CAMK2B (human)): 4.4% |
| CCc1nc(-c2cccc(C)c2)c(-c2ccnc(NC(=O)c3ccccc3)c2)s1 | 100 | 100 | 50 | 100 | 48 | 100 | 100 | 100 | 100 | 100 | 100 | 5.5 | 71 | 96 | 0.45 | 78 | 9 | 93 | 61 | 100 | kinase still bound, per cent of control (TGFBR2 (human)): 82%; kinase still bound, per cent of control (SLK (human)): 41%; kinase still bound, per cent of control (CHEK2 (human)): 80%; kinase still bound, per cent of control (PTK6 (human)): 30%; kinase still bound, per cent of control (CaMK1 (human)): 85%; kinase still bound, per cent of control (DYRK2 (human)): 99%; kinase still bound, per cent of control (MAPKAPK5 (human)): 100%; kinase still bound, per cent of control (STK38L (human)): 96%; kinase still bound, per cent of control (PDPK1 (human)): 89%; kinase still bound, per cent of control (TAOK1 (human)): 72%; kinase still bound, per cent of control (PIP5K1A (human)): 100%; kinase still bound, per cent of control (CDK11B (human)): 88%; kinase still bound, per cent of control (LATS2 (human)): 90%; kinase still bound, per cent of control (HIPK3 (human)): 100%; kinase still bound, per cent of control (HCK (human)): 31% |
